Reference: paper PMC3942692, “Mitochondrial FAD-linked Glycerol-3-phosphate Dehydrogenase: A Target for Cancer Therapeutics” (Pharmaceuticals, 2014)

Target: T1, GPD2 (mitochondrial glycerol-3-phosphate dehydrogenase) (Homo sapiens, UniProt P43304)
T1 construct: aa 43-727 (mitochondrial transit peptide removed), N-terminal Strep-tag II, expressed in E. coli GJ1158, Strep-Tactin purified; cDNA from PC-3 cells; EC 1.1.5.3
T1 sequence (P43304 43-727): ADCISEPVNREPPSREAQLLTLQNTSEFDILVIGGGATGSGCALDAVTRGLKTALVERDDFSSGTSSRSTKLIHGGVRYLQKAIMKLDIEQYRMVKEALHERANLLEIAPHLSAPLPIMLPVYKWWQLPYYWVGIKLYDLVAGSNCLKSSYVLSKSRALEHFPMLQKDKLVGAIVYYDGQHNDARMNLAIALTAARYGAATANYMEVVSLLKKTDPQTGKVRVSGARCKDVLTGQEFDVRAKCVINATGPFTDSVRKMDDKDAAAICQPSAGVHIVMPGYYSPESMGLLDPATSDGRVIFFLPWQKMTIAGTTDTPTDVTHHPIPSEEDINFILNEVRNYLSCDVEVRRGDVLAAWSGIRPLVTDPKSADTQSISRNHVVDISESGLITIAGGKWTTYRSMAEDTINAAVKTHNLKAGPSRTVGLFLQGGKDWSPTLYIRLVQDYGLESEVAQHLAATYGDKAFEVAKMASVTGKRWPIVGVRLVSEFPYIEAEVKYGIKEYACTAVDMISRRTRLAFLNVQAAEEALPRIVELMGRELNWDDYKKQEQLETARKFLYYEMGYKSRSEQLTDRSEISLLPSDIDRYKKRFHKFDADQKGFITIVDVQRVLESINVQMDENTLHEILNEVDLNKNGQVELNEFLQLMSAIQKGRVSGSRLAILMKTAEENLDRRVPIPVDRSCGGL
Test: GPD2 oxidoreductase, resazurin reduction fluorescence
Type: biochemical
Conditions: 30 mM glycerol-3-phosphate
From the text: GPD2 oxidoreductase, resazurin reduction fluorescence on GPD2 (mitochondrial glycerol-3-phosphate dehydrogenase) | six GPD2 activity inhibitors selected for follow-up analysis are shown

Molecule | EC50
CCOC(=O)c1ccc(-n2sccc2=O)cc1 [KM04416] | 1.23 ± 0.54 µM
RH02211 | 28 ± 13.9 µM
